Data: patent US20210330744A1, “Methods and Compositions for Treating Neurodegeneration and Fibrosis” (Temple University-Of The Commonwealth System of Higher …, priority 2017, published 2021)

Legend:
[1] = tested on: PDH E1α; experiment: Western blot of phosphorylated PDH; type: cell-based, mouse; settings: MEFs, 0, 24, 48, or 72 h
Procedure: (§1) All protein samples were lysed by homogenization in RIPA buffer supplemented with phosphatase inhibitors and protease inhibitors. Samples were sonicated briefly and centrifuged at 5,000 g for 10 minutes. The supernatant was collected and used for further analysis. Protein amount was quantified using the Bradford Protein Assay and equal amounts of protein (10-50 μg) were run by electrophoresis on polyacrylamide Tris-glycine SDS gels. Gels were transferred to PVDF and membranes were blocked for 1 hour in Blocking Buffer followed by incubation with primary antibody overnight at 4° C. Membranes were washed in TBS-T 3 times for 5 minutes each and then incubated with secondary antibody for 1 hour at room temperature. After incubation with fluorescent secondary antibodies, membranes were washed in TB S-T 3 times for 5 minutes each and then imaged on a Licor Odyssey system. The following antibodies were used in the study: MCU (1:1,000), MCUb (1:250,), MICU1 (1:500,), MCUR1 (1:500), EMRE (1:250, Santa Cruz, sc-86337), VDAC (1:1,000), PDHE1α phospho 5293 (1:1,000), PDHE1α (1:1,000,), IDH3A (1:500), α-tubulin (1:1,000), ETC respiratory chain complexes (1:2,500), H3K4me3 (1:2,000), H3K9me3 (1:2,000), H3K27me3 (1:2,000), H3K4me2 (1:2,000), H3K9me2 (1:2,000), H3K27me2 (1:2,000), H3 (1:2000); and secondary antibodies: anti-mouse (1:12,000), anti-rabbit, (1:12,000), and anti-goat (1:12,000).

[2] = tested on: MICU1; experiment: Western blot of mtCU components in WT MEFs; type: cell-based, mouse; settings: for MICU1 expression: 12 hours after treatment
Procedure: (§2) Myofibroblast differentiation was induced using 10 ng ml^−1 recombinant mouse Transforming growth factor-β (TGFβ) or 10 μM Angiotensin II (AngII,). In all experiments, FBS was reduced to 1% 24 hours prior to and during treatment with TGFβ or AngII.
as §1

[3] = tested on: MEFs; experiment: ECAR and OCR measurements (Seahorse XF96) in MEFs; type: cell-based, mouse; settings: for increase in glycolysis from baseline: at peak (TGFβ 48 hours, AngII ~12 hours)
Procedure: as §2
A Seahorse Bioscience XF96 extracellular flux analyzer was employed to measure extracellular acidification rates (ECAR) and oxygen consumption rates (OCR). ECAR was measured using the Glycolytic Stress Test Kit and OCR was measured using the Miro Stress Test Kit. To evaluate ECAR, 20,000 MEFs/well were plated in XF media pH 7.4 without supplementation. […] To evaluate OCR, 20,000 MEFs/well were plated in XF media pH 7.4 supplemented with 10 mM glucose and 1 mM sodium pyruvate. […] After each experiment, protein concentration was measured and wells were normalized using the Wave software.

[4] = tested on: NFATc1; experiment: NFAT translocation assay; type: cell-based, mouse; settings: control cells (Ad-βgal), 24 hours
Procedure: MEFs were plated on coated 35-mm dishes and infected with Ad-NFATc1-GFP for 24 hours at which time live-cell images were taken followed by treatment with 10 ng m1^1 TGFP or 10 μM AngII for 24 hours. For live-cell imaging, cells were placed in a 37° C. heated chamber on a Carl Zeiss Axio Observer Z1 fluorescent microscope. Prior to imaging, MEFs were incubated with Hoechst 33342 to demarcate cell nuclei. Images were acquired in the green channel (490ex/525em) and blue channel (350ex/460em). NFAT localization was quantified as the nuclear/cytoplasmic ratio of GFP fluorescence. More than 50 cells per dish were analyzed.

[5] = target: T1, mtCU (Mus musculus, UniProt Q3UMR5+Q8VCX5); experiment: Evaluation of mCa2+ uptake in permeabilized MEFs (Fura-2, Hill fit); type: cell-based
T1 construct: After treating wildtype (WT) MEFs with TGFβ for 12 hours, fibroblasts were permeabilized with digitonin; endogenous in cells; host or cells: wild-type (C57/BL6) mouse embryonic fibroblasts, digitonin-permeabilized, with or without 12 h TGFβ
T1 sequence (Q3UMR5 50-350): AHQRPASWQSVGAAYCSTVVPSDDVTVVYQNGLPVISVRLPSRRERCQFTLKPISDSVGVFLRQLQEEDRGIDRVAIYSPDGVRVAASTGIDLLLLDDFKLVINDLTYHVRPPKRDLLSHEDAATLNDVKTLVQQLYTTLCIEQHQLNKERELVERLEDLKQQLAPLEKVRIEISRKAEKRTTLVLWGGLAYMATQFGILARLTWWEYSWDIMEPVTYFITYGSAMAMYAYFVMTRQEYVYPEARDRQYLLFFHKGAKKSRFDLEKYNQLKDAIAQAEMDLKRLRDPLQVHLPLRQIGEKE
T1 sequence (Q8VCX5 34-477): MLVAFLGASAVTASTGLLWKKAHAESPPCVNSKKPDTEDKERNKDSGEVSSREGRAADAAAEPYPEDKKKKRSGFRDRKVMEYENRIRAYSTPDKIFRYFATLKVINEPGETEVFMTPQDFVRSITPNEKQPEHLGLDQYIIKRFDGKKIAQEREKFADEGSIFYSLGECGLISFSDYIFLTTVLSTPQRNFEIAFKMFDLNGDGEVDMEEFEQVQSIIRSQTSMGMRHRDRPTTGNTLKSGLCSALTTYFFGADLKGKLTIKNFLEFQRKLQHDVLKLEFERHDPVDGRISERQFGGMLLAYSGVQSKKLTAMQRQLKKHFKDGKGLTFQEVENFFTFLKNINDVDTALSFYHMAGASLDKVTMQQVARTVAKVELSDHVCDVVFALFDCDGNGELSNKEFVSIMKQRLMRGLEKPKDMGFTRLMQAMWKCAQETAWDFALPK
T1 sequence (Q9DB10 48-107 partner): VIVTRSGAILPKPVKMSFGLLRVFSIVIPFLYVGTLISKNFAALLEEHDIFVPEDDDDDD
T1 sequence (Q8CD10 23-432 partner): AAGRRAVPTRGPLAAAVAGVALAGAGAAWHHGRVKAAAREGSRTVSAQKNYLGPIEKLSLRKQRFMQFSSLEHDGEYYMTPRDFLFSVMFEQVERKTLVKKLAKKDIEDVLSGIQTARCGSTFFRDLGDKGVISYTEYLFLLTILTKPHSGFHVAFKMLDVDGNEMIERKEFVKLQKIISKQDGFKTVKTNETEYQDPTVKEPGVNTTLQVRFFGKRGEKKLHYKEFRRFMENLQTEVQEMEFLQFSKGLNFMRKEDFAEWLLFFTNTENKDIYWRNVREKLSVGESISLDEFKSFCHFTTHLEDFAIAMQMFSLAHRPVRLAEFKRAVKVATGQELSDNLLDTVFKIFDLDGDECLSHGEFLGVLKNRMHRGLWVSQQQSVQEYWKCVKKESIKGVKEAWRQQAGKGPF
Procedure: Before permeabilization, MEFs were washed in extracellular-like Ca^2+-free buffer (120 mM NaCl, 5 mM KCl, 1 mM KH2PO4, 0.2 mM MgCl2, 0.1 mM EGTA, 20 mM HEPEs-NaOH, pH 7.4). MEFs (1.5 million) were then transferred to intracellular-like medium (ICM) (120 mM KCl, 10 mM NaCl, 1 mM KH2PO4, 20 mM HEPES-Tris, protease inhibitors, 5 mM succinate, 2 μM thapsigargin, 40 μg ml^−1 digitonin, 10 μM CGP-37157 (NCLX inhibitor), pH 7.2). ICM was cleared with Chelex 100 to remove trace Ca^2+. MEFs were gently stirred and 1 μM Fura-2 was added to monitor extra-mitochondrial Ca^2+. At 20 seconds, JC-1 was added to monitor Δψ. Fluorescence signals were monitored in a temperature controlled (37° C.) multi-wavelength-excitation/dual-wavelength-emission spectrofluorometer (Delta RAM, Photon Technology Int.) using 490-nm excitation (ex)/535-nm emission (em) for the JC-1 monomer, 570-nm ex/595-nm em for the J-aggregate of JC-1, and 340- and 380-nm ex/510-nm em for Fura-2. […]
To quantify actual Ca^2+ content, a standard curve of Ca^2+ binding Fura-2 was generated from serial diluted Ca^2+ standards (0.01-120 μM) in ICM. Fura-2 fluorescence ratio was converted to [Ca^2+] by the following equation: [Ca^2+]=Kd*(R−Rmin)/(Rmax−R)*Sf2/Sb2. (Rmin (ratio in 0-Ca^2+)=1.341; Rmax (ratio at saturation)=27.915; Sf2 (380/510 reading in 0-Ca^2+)=15822.14; Sb2 (380/510 reading with Ca^2+ saturation)=1794.32). […]

[6] = tested on: H3K27me2; experiment: Western blot of methylated histone 3 lysine residues; type: cell-based, mouse; settings: 0, 12 or 24 h treatment
Procedure: as §1

[7] = tested on: MEFs; experiment: Metabolomic profiling of MEFs (CE-TOFMS, CE-QqQMS); type: cell-based, mouse
Procedure: Cells in a 10 cm dish were washed with 5% (w/w) mannitol (10mL for the first wash, 2 mL for the second wash) and extracted in 800 μL methanol plus 550 μL internal standard solution (Human Metabolome Technologies, HMT). Extracted solution was spun down at 2,300×g at 4° C. for 5 minutes. The supernatant was transferred into centrifugal filter units (HMT) and centrifuged at 9,100×g at 4° C. for ˜3.5 h until no liquid remained in the filter cup. Filtrate was frozen at −80° C. and shipped to HMT for analysis by CE-TOFMS and CE-QqQMS (Boston, Mass.). Filtrate was centrifugally concentrated and resuspended in 50 μl of ultrapure water immediately before the measurement.
Cationic metabolites were analyzed using an Agilent CE-TOFMS system Machine No. 3 and a fused silica capillary (i.d. 50 μm×80 cm) with Cation Buffer Solution as the electrolyte. The sample was injected at a pressure of 50 mbar for 10 seconds. The applied voltage was set at 27 kV. Electrospray ionization-mass spectrometry (ESI-MS) was conducted in the positive ion mode, and the capillary voltage was set at 4,000 V. The spectrometer was scanned from m/z 50 to 1,000.
Anionic metabolites were analyzed using an Agilent Capillary Electrophoresis System equipped with an Agilent 6460 TripleQuad LC/MS Machine No. QqQ3 and a fused silica capillary (i.d. 50 μm×80 cm) with Anion Buffer Solution as the electrolyte. The sample was injected at a pressure of 50 mbar for 25 seconds. The applied voltage was set at 30 kV. ESI-MS was conducted in the positive and negative ion mode, and the capillary voltage was set at 4,000 V for positive and 3, 500 V for negative mode.
Peaks detected in CE-TOFMs analysis were extracted using automatic integration software and those in CE-QqQMS analysis were extracted using automatic integration software in order to obtain peak information including m/z, migration time, and peak area. The peak area was then converted to relative peak area by the following equation: Relative peak area=Metabolite Peak Area/(Internal Standard Peak Area x Normalization Factor). The peaks were annotated based on the migration times in CE and m/z values determined by TOFMS. Putative metabolites were then assigned from HMT metabolite database on the basis of m/z and migration time. All metabolite concentrations were calculated by normalizing the peak area of each metabolite with respect to the area of the internal standard and by using standard curves, which were obtained by three-point calibrations. A heat map was generated using ClustVis. Unit variance was applied to rows. Rows were clustered using Manhattan distance and average linkage.

[8] = tested on: H3K27me2; experiment: H3K27me2 ChIP-qPCR at Postn and Pdgfra loci; type: cell-based, mouse; settings: control cells (Ad-βgal), 12 hours
Procedure: ChIP was performed using the ChIP-IT High Sensitivity. Cells were fixed, lysed and sonicated for 30 minutes (30 seconds on, 30 seconds off) leading to chromatin fragments between 200 and 1200 base pairs. DNA-bound protein was immunoprecipitated using 2 μg anti-H3K27me2 or IgG. Following IP, cross-links were reversed, protein was removed, and DNA was purified. qPCR was performed with equal amounts of H3K27me2-immunoprecipitated sample, IgG-immunoprecipitated sample, and input sample. Values were normalized to input measurements and fold enrichment was calculated. qPCR primers (Table 4) were designed to target gene loci regions flanking or nearby myofibroblast transcription factor predicted binding sites according to Genomatrix-MatInspector Software analysis.

[9] = tested on: 5-methylcytosine (5-mC); experiment: Global DNA methylation ELISA; type: cell-based, mouse; settings: MEFs
Procedure: To extract genomic DNA, cells were collected and washed with PBS followed by 2 h incubation at 60° C. in DNA isolation buffer (0.5% SDS, 100 mM NaCl, 50 mM Tris pH 8, 3 mM EDTA, 0.1 mg/mL proteinase K). DNA was extracted using chloroform followed by ethanol precipitation and dissolved in double-distilled water. DNA methylation was quantified using the MethylFlash™ Methylated DNA Quantification Kit. 100 nanograms of input DNA was used per reaction. Absorbance at 450-nm was measured using a Tecan Infinite F50 microplate reader.

[10] = tested on: MEFs; experiment: α-SMA immunofluorescence (myofibroblast differentiation); type: cell-based, mouse; settings: wildtype MEFs, 48 hours
Procedure: For experiments that required adenoviral gene transfer, MEFs were incubated in adenovirus for 24 hours at which time the media was changed. To knockout Mat, MEFs were transduced with adenovirus encoding Cre-recombinase (Ad-Cre) or βgalactosidase (Ad-(βgal) for 24 h and experiments were performed 5 days post-infection in order to ensure sufficient time for protein turnover. For experiments using adenovirus encoding Glyco-High, Glyco-Low, or mito-R-GECO1, cells were incubated for an additional 24 hours prior to the experiment. The following adenoviruses have previously been described: NFAT-cl-GFP, Glyco-High, Glyco-Low, mito-R-GECO1 (De Windt et al., 2000; Kurland et al., 1992; Salabei et al., 2016; Zhao et al., 2011). Glyco-High and Glyco-Low adenoviruses were made and purified by Vector Labs using cDNA for a rat liver PFKFB1 isoform of phosphofructokinase 2 (PFK2)/ fructose-2,6-bisphosphatase (FBP2). […]
MEFs were seeded on coated 35-mm dishes. […] Images were acquired in the red (590ex/617em) and blue (350ex/461em) channels. α-SMA expression was assessed by quantifying fluorescence intensity and the percentage α-SMA positive cells. More than 50 cells per dish were analyzed.

Angiotensin II (DRVYIHPF; Angiotensin-2; UniProt P01019 25-32, looked up) [AngII, pro-fibrotic agonist]
ratio of p-PDH E1α/PDH [1]: increased | MICU1 expression [2]: similarly large increase | basal respiration [3]: slight decrease | increase in glycolysis from baseline [3]: 45% | nuclear translocation of NFATc1 [4]: induced nuclear translocation of NFATc1

TGFβ: recombinant mouse Transforming growth factor-β, pro-fibrotic agonist
Hill coefficient of mCa2+ uptake dose response curve ([5]; WT MEFs treated 12 hours, control cells 4.29): 10.27 | mCa2+ uptake ([5]; following delivery of ~0.5-2 μM [Ca2+], 12 hours treatment): decrease | dimethylation of H3K27 (H3K27me2) [6]: progressive decrease | α-ketoglutarate (αKG) ([7]; 12 h after treatment): increased | F-1,6-BP ([7]; 12 h post-treatment): significantly increased | citrate levels ([7]; 12 h post-treatment): significantly reduced | pyruvate ([7]; control MEFs 12 h post-treatment, from 1000 at baseline): 1600 pmol/million cells | glutamine (Gln) and glutamate (Glu) levels ([7]; control cells): decreased | increase in αKG ([7]; treated fibroblasts): ~2 fold | H3K27me2 enrichment at the Postn and Pdgfra loci [8]: lost | global DNA methylation [9]: Slight, but non-significant, decreases | ratio of p-PDH E1α/PDH [1]: increased | MICU1/MCU ratio [2]: rapidly increased | MICU1 expression [2]: dramatic increase | increase in glycolysis from baseline [3]: > 400% | increase in basal respiration from baseline ([3]; peaking 48 hours after treatment): ~135% | nuclear translocation of NFATc1 [4]: induced nuclear translocation of NFATc1

COC(=O)CCC(=O)C(=O)OC [DM-αKG, dimethyl-αKG]
percentage of α-SMA positive cells [10]: increased the percentage of α-SMA positive cells to the same extent as 48 hours of TGFβ treatment
